The source of these data is patent US20230233569A1 (Revolution Medicines, Inc., priority 2020, published 2023).

Where two headings read alike, the source gives them in different places. A value given as a limit tells only on which side of the number the result lay.

The target of one experiment is KRAS G12S (Homo sapiens, UniProt P01116+P62937, G12S). As to the kind of experiment: Disruption of BRAF RBD interaction with Ras (FRET / MOA assay, with Cyclophilin A). In kind it is biochemical. The source says:
(§1) This protocol may also be executed substituting other Ras proteins or nucleotides.
(§2) The purpose of this biochemical assay was to measure the ability of test compounds to facilitate ternary complex formation between a nucleotide-loaded K-Ras isoform and Cyclophilin A; the resulting ternary complex disrupts binding to a BRAF^RBD construct, inhibiting K-Ras signaling through a RAF effector. Data is reported as IC50 values.
(§3) Compound was present in plate wells as a 10-point 3-fold dilution series starting at a final concentration of 30 μM. After incubation at 25° C. for 3 hours, a mixture of Anti-His Eu-W1024 and anti-GST allophycocyanin was then added to assay sample wells at final concentrations of 10 nM and 50 nM, respectively, and the reaction incubated for an additional 1.5 hours. […] Compounds that facilitate disruption of a K-Ras:RAF complex were identified as those eliciting a decrease in the TR-FRET ratio relative to DMSO control wells.
(§4) The purpose of this biochemical assay was to measure the ability of test compounds to facilitate ternary complex formation between a nucleotide-loaded K-Ras isoform and Cyclophilin A; the resulting ternary complex disrupts binding to a BRAF^RBDD construct, inhibiting K-Ras signaling through a RAF effector. Data is reported as IC50 values.

For the next experiment, the target named is KRAS G12C (Homo sapiens, UniProt P01116+P62937, G12C). The description is as above. Format: biochemical.
Chain of KRAS G12C (P01116 1-169 isoform P01116-2 G12C): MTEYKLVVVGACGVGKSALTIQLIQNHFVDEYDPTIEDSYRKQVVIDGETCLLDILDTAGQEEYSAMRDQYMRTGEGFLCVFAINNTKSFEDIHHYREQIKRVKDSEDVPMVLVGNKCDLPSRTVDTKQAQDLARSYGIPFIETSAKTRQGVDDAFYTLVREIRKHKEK
Chain of KRAS G12C (P62937 whole entry): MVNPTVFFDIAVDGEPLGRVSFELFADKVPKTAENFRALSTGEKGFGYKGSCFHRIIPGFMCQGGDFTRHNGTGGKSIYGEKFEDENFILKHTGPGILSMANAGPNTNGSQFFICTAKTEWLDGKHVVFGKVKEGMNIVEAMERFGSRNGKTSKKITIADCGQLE
Source text: as §1, §2, §3, §4

Another experiment addresses KRAS G12V (Homo sapiens, UniProt P01116+P62937, G12V). Described as above. Format: biochemical.
Source text: as §1, §2, §3, §4

The target in another experiment is KRAS G12D (Homo sapiens, UniProt P01116+P62937, G12D). The description is as above. In kind it is biochemical.
Chain of KRAS G12D (P01116 1-169 isoform P01116-2 G12D limits assumed): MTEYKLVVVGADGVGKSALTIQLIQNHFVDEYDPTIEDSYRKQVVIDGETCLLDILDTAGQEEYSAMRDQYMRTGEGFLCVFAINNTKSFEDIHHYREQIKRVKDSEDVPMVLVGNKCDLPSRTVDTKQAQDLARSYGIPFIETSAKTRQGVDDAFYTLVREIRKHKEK
Chain of KRAS G12D (P62937 whole entry): as the sequence (P62937 whole entry) above
Source text: as §1, §2, §3, §4

In a further experiment the target is KRAS G13C (Homo sapiens, UniProt P01116+P62937, G13C). The description is as above. Format: biochemical.
Chain of KRAS G13C (P01116 1-169 isoform P01116-2 G13C): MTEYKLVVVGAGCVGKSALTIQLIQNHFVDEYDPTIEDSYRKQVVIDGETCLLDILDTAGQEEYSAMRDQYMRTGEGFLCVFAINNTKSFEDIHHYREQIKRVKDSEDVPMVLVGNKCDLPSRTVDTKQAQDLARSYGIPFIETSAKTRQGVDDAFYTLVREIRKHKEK
Chain of KRAS G13C (P62937 whole entry): as the sequence (P62937 whole entry) above
Source text: as §1, §2, §3, §4

The target in the next experiment is KRAS G13D (Homo sapiens, UniProt P01116+P62937, G13D). The experiment is described as above. Format: biochemical.
Chain of KRAS G13D (P01116 1-169 isoform P01116-2 G13D limits assumed): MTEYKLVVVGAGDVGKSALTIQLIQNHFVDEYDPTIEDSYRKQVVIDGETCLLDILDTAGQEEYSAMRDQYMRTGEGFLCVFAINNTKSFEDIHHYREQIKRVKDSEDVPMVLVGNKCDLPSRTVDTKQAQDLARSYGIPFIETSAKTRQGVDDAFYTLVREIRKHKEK
Chain of KRAS G13D (P62937 whole entry): as the sequence (P62937 whole entry) above
Source text: as §1, §2, §3, §4

For the next experiment, the target named is NRAS G12C (Homo sapiens, UniProt P01111+P62937, G12C). Described as above. In kind it is biochemical.
Chain of NRAS G12C (P01111 whole entry G12C): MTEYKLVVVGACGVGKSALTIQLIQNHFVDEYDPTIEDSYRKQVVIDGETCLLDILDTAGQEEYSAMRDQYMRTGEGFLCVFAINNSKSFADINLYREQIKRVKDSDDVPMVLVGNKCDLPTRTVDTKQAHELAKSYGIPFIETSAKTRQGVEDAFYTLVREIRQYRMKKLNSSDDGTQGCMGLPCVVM
Chain of NRAS G12C (P62937 whole entry): as the sequence (P62937 whole entry) above
Source text: as §1, §2, §3, §4

For another experiment, the target named is KRAS WT (Homo sapiens, UniProt P01116+P62937). The description is as above. In kind it is biochemical.
Chain of KRAS WT (P01116 1-169 isoform P01116-2 limits assumed): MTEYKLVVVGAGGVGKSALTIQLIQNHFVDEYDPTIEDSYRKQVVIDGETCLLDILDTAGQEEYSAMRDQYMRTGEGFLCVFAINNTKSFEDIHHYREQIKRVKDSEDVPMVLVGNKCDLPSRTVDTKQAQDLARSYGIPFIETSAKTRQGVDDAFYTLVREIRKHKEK
Chain of KRAS WT (P62937 whole entry): as the sequence (P62937 whole entry) above
Source text: as §1, §2, §3, §4

For another experiment, the system named is NCI-H358 (K-Ras G12C). As to the kind of experiment: CellTiter-Glo cell viability assay, 5-day treatment. The following applies: Homo sapiens, NCI-H358, 120 h, 5-day treatment; read-out: H358 Cell Viability assay data (K-Ras G12C, IC50). Format: cell-based. As for the experimental part: Protocol: CellTiter-Glo® Cell Viability Assay
Note—The following protocol describes a procedure for monitoring cell viability of K-Ras mutant cancer cell lines in response to a compound of the invention. Other RAS isoforms may be employed, though the number of cells to be seeded will vary based on cell line used.
Test compounds (132.5 nL) were directly dispensed into the assay plates containing cells. […] On day 5, assay plates and their contents were equilibrated to room temperature for approximately 30 minutes. […] Luminescence was measured using the PerkinElmer Enspire. Data were normalized by the following: (Sample signal/Avg. DMSO)*100. The data were fit using a four-parameter logistic fit.
Test compounds (132.5 nl) were directly dispensed into the assay plates containing cells. […] On day 5, assay plates and their contents were equilibrated to room temperature for approximately 30 minutes. […] Luminescence was measured using the PerkinElmer Enspire. Data were normalized by the following: (Sample signal/Avg. DMSO)*100. The data were fit using a four-parameter logistic fit.

Where [1] appears, read: KRAS G12V FRET data IC50, KRAS G12V.
[2] abbreviates: KRAS G13D FRET data IC50, KRAS G13D.
Setting [3] is: NRAS G12C FRET data IC50, NRAS G12C.
Setting [4] is: KRAS WT FRET data IC50, KRAS WT.
[5] abbreviates: read-out: KRAS G12S FRET data, IC50.
Where [6] appears, read: read-out: KRAS G12C FRET data, IC50.
Where [7] appears, read: KRAS G12V, read-out: KRAS G12V FRET data IC50.
Where [8] appears, read: read-out: KRAS G12D FRET data, IC50.
The mark [9] stands for this setting: read-out: KRAS G13C FRET data, IC50.
Setting [10] is: KRAS G13D, read-out: KRAS G13D FRET data IC50.
Where [11] appears, read: NRAS G12C, read-out: NRAS G12C FRET data IC50.
The mark [12] stands for this setting: KRAS WT, read-out: KRAS WT FRET data IC50.

Chain of KRAS G12V (P01116 1-169 isoform P01116-2 G12V limits assumed): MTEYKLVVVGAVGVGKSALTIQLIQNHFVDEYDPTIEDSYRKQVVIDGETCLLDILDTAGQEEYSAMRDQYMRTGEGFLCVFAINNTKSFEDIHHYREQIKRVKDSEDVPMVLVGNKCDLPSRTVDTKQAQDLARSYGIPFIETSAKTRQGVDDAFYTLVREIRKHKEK
Chain of KRAS G12V (P62937 whole entry): as the sequence (P62937 whole entry) above
Chain of KRAS G12S (P01116 1-169 isoform P01116-2 G12S limits assumed): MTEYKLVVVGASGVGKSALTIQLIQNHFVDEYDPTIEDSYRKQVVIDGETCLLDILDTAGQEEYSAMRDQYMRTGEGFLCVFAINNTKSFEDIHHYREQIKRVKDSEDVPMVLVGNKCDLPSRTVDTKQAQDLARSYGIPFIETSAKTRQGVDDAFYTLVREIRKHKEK
Chain of KRAS G12S (P62937 whole entry): as the sequence (P62937 whole entry) above

In the case of `CCn1c(-c2cnccc2COC)c2c3cc(ccc31)-c1cc(O)cc(c1)C[C@H](NC(=O)[C@H](C(C)C)N(C)C(=O)[C@H]1CCN(CCO)C1)C(=O)N1CCC[C@H](N1)C(=O)OCC(C)(C)C2` [Example A23, (2S)—N-[(8S,14S)-22-ethyl-4-hydroxy-21-[4-(methoxymethyl)pyridin-3-yl]-18,18-dimethyl-9,15-dioxo-16-oxa-10,22,28-triazapentacyclo[18.5.2.1^2,6.1^10,14.0^23,27]nonacosa-1(26),2,4,6(29),20,23(27),24-heptaen-8-yl]-2-{1-[(3S)-1-(2-hydroxyethyl)pyrrolidin-3-yl]-N-methylformamido}-3-methylbutanamide], the IC50 was in the range of 100 to 1000 nM against KRAS G12S (KRAS G12S FRET data, IC50); 100 to 1000 nM at KRAS G12C (KRAS G12C FRET data, IC50); 1000 to 10000 nM against KRAS G12V (setting [1]); 100 to 1000 nM against KRAS G12D (KRAS G12D FRET data, IC50); 10 to 100 nM on KRAS G13C (KRAS G13C FRET data, IC50); 10 to 100 nM against KRAS G13D (setting [2]). Also, the IC50 was 100 to 1000 nM on NRAS G12C (setting [3]), 10 to 100 nM at KRAS WT (setting [4]) and 1000 to 10000 nM in the experiment with NCI-H358 (K-Ras G12C).
In the case of `CCn1c(-c2cnccc2COC)c2c3cc(ccc31)-c1cc(O)cc(c1)C[C@H](NC(=O)[C@H](C(C)C)N(C)C(=O)[C@H]1CCN(C)C1)C(=O)N1CCC[C@H](N1)C(=O)OCC(C)(C)C2` [Example A27, (2S)—N-[(8S,14S)-22-ethyl-4-hydroxy-21-[4-(methoxymethyl)pyridin-3-yl]-18,18-dimethyl-9,15-dioxo-16-oxa-10,22,28-triazapentacyclo[18.5.2.1^2,6.1^10,14.0^23,27]nonacosa-1(26),2,4,6(29),20,23(27),24-heptaen-8-yl]-3-methyl-2-{N-methyl-1-[(3S)-1-methylpyrrolidin-3-yl]formamido}butanamide], the IC50 fell in the range of 100 to 1000 nM on KRAS G12S (KRAS G12S FRET data, IC50); 100 to 1000 nM on KRAS G12C (KRAS G12C FRET data, IC50); 1000 to 10000 nM at KRAS G12V (setting [1]); 100 to 1000 nM against KRAS G12D (KRAS G12D FRET data, IC50); 10 to 100 nM against KRAS G13C (KRAS G13C FRET data, IC50); 10 to 100 nM on KRAS G13D (setting [2]). The IC50 on NRAS G12C (setting [3]) is 100 to 1000 nM; at KRAS WT (setting [4]), 100 to 1000 nM; in the experiment on NCI-H358 (K-Ras G12C) it was 1000 to 10000 nM.
With `CCn1c(-c2cccnc2COC)c2c3cc(ccc31)-c1cc(O)cc(c1)C[C@H](NC(=O)[C@H](C(C)C)N(C)C(=O)[C@H]1CCNC1)C(=O)N1CCC[C@H](N1)C(=O)OCC(C)(C)C2` [Example A32], the IC50 at KRAS G12S (setting [5]) lay in the range of 100 to 1000 nM; on KRAS G12C (setting [6]), 100 to 1000 nM; at KRAS G12V (setting [7]), 1000 to 10000 nM; on KRAS G12D (setting [8]), 100 to 1000 nM; on KRAS G13C (setting [9]) it was 100 to 1000 nM; at KRAS G13D (setting [10]), 100 to 1000 nM. The IC50 was 100 to 1000 nM at NRAS G12C (setting [11]), 100 to 1000 nM at KRAS WT (setting [12]) and over 10000 nM with NCI-H358 (K-Ras G12C).
Regarding `CCn1c(-c2cnccc2COC)c2c3cc(ccc31)-c1cc(O)cc(c1)C[C@H](NC(=O)[C@H](C(C)C)N(C)C(=O)[C@H]1CCN(S(=O)(=O)N3CC(N)C3)C1)C(=O)N1CCC[C@H](N1)C(=O)OCC(C)(C)C2` [Example A35], the IC50 at KRAS G12S (setting [5]) was 100 to 1000 nM; on KRAS G12C (setting [6]), 100 to 1000 nM; at KRAS G12V (setting [7]), 100 to 1000 nM; at KRAS G12D (setting [8]) it was 1000 to 10000 nM; on KRAS G13C (setting [9]), 100 to 1000 nM; on KRAS G13D (setting [10]), 100 to 1000 nM. Also, the half-inhibitory concentration (IC50) on NRAS G12C (setting [11]), at KRAS WT (setting [12]) and in the experiment on NCI-H358 (K-Ras G12C) was 100 to 1000 nM each time.
